# Data taken from paper PMC8092228 (mBio, 2021).
# Legend:
# [1] = molecular target: T1, LOV-PAS (Brucella abortus, UniProt Q2YKK7)
# T1 construct: gene BAB2_0652
# [2] = molecular target: T2, LOV-PAS-HK (full-length LOV-HK) (Brucella abortus, UniProt Q2YKK7)
# T2 construct: gene BAB2_0652
# T2 sequence (Q2YKK7 15-489 limits assumed): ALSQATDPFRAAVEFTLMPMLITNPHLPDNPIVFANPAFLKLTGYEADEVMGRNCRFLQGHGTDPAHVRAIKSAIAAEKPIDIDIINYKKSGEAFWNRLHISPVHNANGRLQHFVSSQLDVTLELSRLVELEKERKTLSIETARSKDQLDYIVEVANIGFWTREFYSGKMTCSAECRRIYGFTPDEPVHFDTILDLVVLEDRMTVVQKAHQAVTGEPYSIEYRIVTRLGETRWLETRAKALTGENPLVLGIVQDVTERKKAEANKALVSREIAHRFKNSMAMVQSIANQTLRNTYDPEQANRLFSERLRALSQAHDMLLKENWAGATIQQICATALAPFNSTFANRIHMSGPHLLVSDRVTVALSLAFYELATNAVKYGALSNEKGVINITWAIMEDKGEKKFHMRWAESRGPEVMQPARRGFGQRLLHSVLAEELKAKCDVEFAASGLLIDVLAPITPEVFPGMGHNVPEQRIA
# T1 sequence (Q2YKK7 15-273 limits assumed): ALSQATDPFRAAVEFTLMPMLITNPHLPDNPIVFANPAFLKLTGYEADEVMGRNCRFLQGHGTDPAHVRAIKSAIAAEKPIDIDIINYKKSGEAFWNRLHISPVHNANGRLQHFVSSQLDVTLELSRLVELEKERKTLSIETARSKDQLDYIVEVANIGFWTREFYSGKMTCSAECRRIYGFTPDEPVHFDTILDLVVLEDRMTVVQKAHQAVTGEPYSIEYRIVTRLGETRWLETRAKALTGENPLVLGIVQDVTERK
compound,measurement,setting,value
Cc1cc2nc3c(=O)[nH]c(=O)nc-3n(C[C@H](O)[C@H](O)[C@H](O)COP(=O)(O)O)c2cc1C [FMN],"X-ray crystal structure, 2.74 A (dark), 2.80 A (light)",[1],the FMN ligand is clearly separated from the protein moiety in the electron density map
same,X-ray crystal structure 3.25 A,[2],the electron densities associated with the FMN chromophores are fused into the protein moiety
